According to patent publication US6492330B1, “Antiangiogenic drugs” (National Institute of Immunology, priority 1996, dated 2002):
Non-standard residues stand in square brackets, D forms with d. No end group written: not given here. dPhe(4-Cl) = N[C@H](Cc1ccc(Cl)cc1)C(=O)O

Key:
Format in all cases: cell-based
[1] = test system: ECV.304 cells; assay: MTT assay, inhibition of proliferation of endothelial cells ECV.304; conditions: 72 hours (Table 1)
Experimental: (§1) 150 μl of medium was added to the wells of a 96-well tissue culture plate (Nunc, Denmark) followed by 30 μl of cell suspension. The plate was left in incubator (37° C., 5% CO2) overnight. Each of the seven peptides of the combination MuJ-7 were added at three molar concentrations of 10^−7M, 10^−8M and 10^−9M. 20 μl of MuJ-7 at three concentrations of N/10, N and 10N was added to marked wells of the 96-well plate. The value of N for each of the individual peptides was 10^−8M for VIP2, BOM1, SP1, VIP3, and SOM2 and 10^−7M for VIP1, and 10^−9M for SOM1. Each concentration was plated in triplicate. 20 μl of medium alone was added to control wells while wells without cells served as blanks. A total volume of 200 μl was ensured in each well and the plate was left in an incubator (37° C., 5% CO2). After 72 hours of incubation an MTT assay was performed and percentage inhibition in proliferation of treated cells was calculated with respect to control cells.
150 μl of medium was added to the wells of a 96-well tissue culture plate (Nunc, Denmark) followed by 30 μl of cell suspension. The plate was left in incubator (37° C., 5% CO2) overnight. Novel peptides shown below were incubated with cells at concentration range of 10^−7 to 10^−9 M (except DT71 at concentration range 10^−8 to 10^−10 M). Each concentration was plated in triplicates. 20 μl of medium alone was added to control wells while wells without cells served as blanks. A total volume of 200 μl was ensured in each well and plate was left in incubator (37° C., 5% CO2). After 72 hours of incubation an MTT assay was performed and percentage inhibition in proliferation of treated cells was calculated with respect to control cells.

[2] = test system: EaHy.926; assay: MTT assay, inhibition of proliferation of endothelial cells EaHy.926; conditions: 72 hours
Experimental: as §1

[3] = test system: endothelial cells ECV.304; assay: Migration assay across 8 μm polycarbonate filter transwell inserts; conditions: N = 10^−8 M for VIP2, BOM1, SP1, VIP3, SOM2, 10^−7M for VIP1, 10^−9M for SOM1, 24 hours
Experimental: Polycarbonate filter transwell inserts (24 well size) with 8 μm pores (Nunc, Denmark) were used for the migration assay. ECV304 (10^4 cells/200 ul DMEM containing 0.1% BSA) was added to the upper chamber. The lower chamber contained 600 ul of DMEM with 0.1% BSA. Individual peptides of the composition MuJ-7 at six different concentrations each of N/100, N/10, N, 10N, 100N and 1000N were added directly to the upper well and the plate incubated at 37° C. for 24 hours. The cells migrated to the lower chamber were viewed randomly at five different phase-contrast microscopic fields and the total number of cells counted using Video Pro 32 Image Analysis system. Percent inhibition in migration was determined with reference to the Control. Similarly, […] different concentrations of N/100, N/10, N, 10N, 100N and 1000N of MuJ-7 were added directly to the upper well and the plate incubated at 37° C. for 24 hours. The cells migrated to the lower chamber were counted as described above.
Polycarbonate filter trasnwell inserts (24 well size) with 8 μm pores (Nuno, Denmark) were used for the migration assay. ECV304 (10^4 cells/200 ul DMEM containing 0.1% BSA) was added to the upper chamber. The lower chamber contained 600 ul of DMEM with 0.1% BSA. […] The sequence of each of the peptides added are described above. The cells migrated to the lower chamber were viewed randomly at five different phase-contrast microscopic fields and the total number of cells counted using Video Pro 32 Image Analysis system. Percent inhibition in migration was determined with reference to Control. […]

Row | Substance | Percent Inhibition Proliferation ([1]; ECV.304, peptide 10^−7M) [%] | Percent Inhibition Proliferation ([1]; ECV.304, peptide 10^−8M) [%] | Percent Inhibition Proliferation ([1]; ECV.304, peptide 10^−9M) [%] | Percent Inhibition Proliferation ([2]; EaHy.926, peptide 10^−7M) [%] | Percent Inhibition Proliferation ([2]; EaHy.926, peptide 10^−8M) [%] | Percent Inhibition Proliferation ([2]; EaHy.926, peptide 10^−9M) [%] | Percent inhibition in migration ([3]; 10N) [%] | Percent inhibition in migration ([3]; 100N) [%] | Percent inhibition in migration ([3]; 1000N) [%] | Percent inhibition in migration ([3]; N/10) [%] | Percent inhibition in migration ([3]; N/100) [%] | Percent inhibition in migration ([3]; N) [%]
1 | D-Phe-Cys-Tyr-D-Trp-Om-Thr-Pen-Thr-NH2 [SOM1] | 20 | 20 | 19 | 36 | 36 | 22 | 88.75 | 73.73 | 25.00 | 78.50 | 84.27 | 88.11
2 | His-Ser-Asp-Ala-Val-4-Cl-D-Phe-Thr-Asp-Asn-Tyr-Thr-Arg-Leu-Arg-Lys-Gln-Leu-Ala-Val-Lys-Lys-Tyr-Leu-Asn-Ser-Ile-Leu-Asn-NH2 (HSDAV[dPhe(4-Cl)]TDNYTRLRKQLAVKKYLNSILN-NH2; N-terminus assumed; SMILES CC[C@H](C)[C@H](NC(=O)[C@H](CO)NC(=O)[C@H](CC(N)=O)NC(=O)[C@H](CC(C)C)NC(=O)[C@H](Cc1ccc(O)cc1)NC(=O)[C@H](CCCCN)NC(=O)[C@H](CCCCN)NC(=O)[C@@H](NC(=O)[C@H](C)NC(=O)[C@H](CC(C)C)NC(=O)[C@H](CCC(N)=O)NC(=O)[C@H](CCCCN)NC(=O)[C@H](CCCNC(=N)N)NC(=O)[C@H](CC(C)C)NC(=O)[C@H](CCCNC(=N)N)NC(=O)[C@@H](NC(=O)[C@H](Cc1ccc(O)cc1)NC(=O)[C@H](CC(N)=O)NC(=O)[C@H](CC(=O)O)NC(=O)[C@@H](NC(=O)[C@@H](Cc1ccc(Cl)cc1)NC(=O)[C@@H](NC(=O)[C@H](C)NC(=O)[C@H](CC(=O)O)NC(=O)[C@H](CO)NC(=O)[C@@H](N)Cc1c[nH]cn1)C(C)C)[C@@H](C)O)[C@@H](C)O)C(C)C)C(=O)N[C@@H](CC(C)C)C(=O)N[C@@H](CC(N)=O)C(N)=O) [VIP3] | 21 | 25 | 22 | 21 | 9 | 24 | 23.90 | 11.62 | 0.00 | 32.80 | 0.00 | 92.45
3 | KPRRPYTDNYTRLRKQMAVKKYLNSILN-NH2 [VIP1] | 15 | 17 | 16 | 25 | 24 | 23 | 62.60 | 66.52 | 0.00 | 52.60 | 37.53 | 69.40
